Data reported in publication PMC6770581, “New Thalidomide-Resembling Dicarboximides Target ABC50 Protein and Show Antileukemic and Immunomodulatory Activities” (Biomolecules, 2019).

Columns and labels:
[1] = system: HeLa cells with knocked-down ABC50 (HeLa kdABC); assay: MTT viability of HeLa cells with siRNA knockdown of ABC50; format: cell-based, human; conditions: 48 h
Experimental: Human umbilical vein endothelial cells (purchased from Life Technologies, Carlsbad, CA, USA) were cultured according to the manufacturer’s instructions in Medium 200 supplemented with Low Serum Growth Supplement. 1 × 10^4 cells were seeded on each well on a 96-well plate (Nunc, Roskilde, Denmark). The HeLa (human cervix carcinoma, cat. #93021013), CFPAC (human pancreatic adenocarcinoma, cat. #91112501), K562 (chronic myelogenous leukemia, cat. #89121407), HL-60 (acute myelogenous leukemia, cat. #98070106), and MOLT-4 (Human acute T lymphoblastic leukemia, cat. #85011413) cells were purchased from European Collection of Authenticated Cell Cultures (ECACC). They were cultured in an RPMI 1640 medium supplemented with antibiotics (streptomycin, penicillin) and 10% fetal calf serum (20% for HL60), in a 5% CO2-95% air atmosphere. 7 × 10^3 cells were seeded on each well on a 96-well plate (Nunc). 24 hours later the cells were exposed to the test compounds. […] The cytotoxicity of all compounds was determined by the MTT (3-(4,5-dimethylthiazol-2-yl)-2,5-diphenyltetrazolium bromide) assay (Sigma, St. Louis, MO, USA). […] MTT-formazan crystals were dissolved in 20% SDS and 50% DMF at pH 4.7 and VIS light absorption was measured at 570 and 650 nm on a microplate reader FLUOstar Omega (BMG Labtech, Offenburg, Germany). […]
HeLa cells were transfected with a siRNA with the aid of Lipofectamine 3000 (Invitrogen, Carlsbas, CA, USA) according to manufacturer’s instructions. […] Unless otherwise stated, cells transfected with a given siRNA were analyzed 48 h post-transfection. siRNAs for ABC50 (NM_001090) were designed with the aid of the siDESIGN Center (www.dharmacon.com), synthesized in-house (the Department of Bioorganic Chemistry, Centre of Molecular and Macromolecular Studies, Polish Academy of Sciences (CMMS PAS) and purified by high-performance liquid chromatography (HPLC). The silencing efficiency of siRNAs was determined by western blotting of ABC50 protein in transfected HeLa cells. The following siRNA duplexes (S—sense strand, AS—antisense strand) were used: […]

[2] = system: caspase 8 and caspase 9; assay: Western blot of caspase 8 and caspase 9 cleavage in K562 cells; format: cell-based, human; conditions: K562, 5 µM
Experimental: 0.15 × 10^6 cells/ml were seeded on a 6-well plate (Nunclon, Thermo Fisher Scientific, Waltham, MA, USA). Following 24 hour preincubation the cells were treated with either the compound or 1% DMSO (control) for 24 or 48 hours. Cells were lysed using RIPA Buffer (Sigma) supplemented with Complete Protease Inhibitor Coctail (Roche, Basel, Switzerland) and PhosSTOP (Roche). Samples containing 20 µg protein were resuspended in 4× Laemmli’s Buffer (Biorad, Hercules, CA, USA), separated on 10% acrylamide gel (TGX Stain-Free Gel Kit, Biorad) and blotted onto nitrocellulose membrane (Panreac Applichem ITW, Darmstadt, Germany). Blots were blocked in 5% non-fat dry milk in TBST (1% (v/v) Tween-20, 140 mM NaCl, 25 mM Trizma, pH = 7.4 adjusted with HCl) for 1 h and incubated overnight with the antibodies against caspase-9 (9502), caspase-8 (9746), caspase-3 (9662), caspase-3 cleaved (9661) and β-actin (3700), all from Cell Signaling Technology, and antibody against poly(ADP-ribose)polymerase (PARP, 551025) from BD Pharmingen. Membranes were incubated with appropriate species-specific secondary antibodies conjugated with HRP (Cell Signaling Technology, Danvers, MA, USA). Blots were developed using ECL substrate (Biorad, Hercules, CA, USA). The experiment was performed in at least three independent biological replicates.

Row | Structure (SMILES) | viability of HeLa cells with normal levels of ABC50 (siCTL) ([1]; control siRNA, up to 2.5 µM) | reduction of viability of HeLa kdABC ([1]; si166, 5 µM) | viability of HeLa cells with knocked-down ABC50 (HeLa kdABC) ([1]; si166, up to 2.5 µM) | cleavage of caspase 8 and caspase 9 (Western blot) ([2]; 24 h) | cleavage of caspase 8 and caspase 9 (Western blot) ([2]; 48 h)
1 | CN(C)CCN1C(=O)C2C(C1=O)C1(c3ccccc3)CC2(c2ccccc2)C(c2ccccc2)=C1c1ccccc1 (centres unmarked) [Compound 6] | significantly lower | about 20% | not affected |  | 
2 | CCC12C(=O)C(CC)(C(c3ccccc3)=C1c1ccccc1)C1C(=O)N(CC(O)CNC(C)C)C(=O)C12 (centres unmarked) [Compound 5] |  |  |  | cleaved form of caspase 9 | Cleaved (i.e., activated) forms of caspases 8/9 were detected
